Experimental findings from patent US6180599A, “Pharmaceutical composition, containing medium-chain fatty acids as active ingredients, for dental caries and periodontal disease” (priority 1997, dated 2001) are described below.

A short description of assay [1]: Extracellular polysaccharide in liquid medium with fatty acid, no bacteria. The procedure:
(§1) In order to identify the effect by which medium-chain fatty acids inhibit plaque matrix formation, inhibitory effect and concentration of extracellular polysaccharide synthesis were determined in seven kinds of standard cariogenic plaque bacteria. Also, the inhibitory effect of extracellular polysaccharide synthesis for 20 kinds of cariogenic plaque bacteria, separated from the human oral cavity, was measured. Liquid culture media used were: Todd-Hewitt broth of Streptococcus, Lactobacilli MRS broth of Lactobacillus and Brain Heart Infusion broth of Actinomyces. 0.1 ml of bacterial (or cell) suspension (OD600 =0.5) of each bacteria was inoculated to 5.9 ml of culture media containing 1 mM of medium-chain fatty acids and 2% of glucose, and was cultured for 24^~ 48 hours in 10% CO2 incubator. After culturing, the resultant was centrifuged to precipitate at 5,000×g for 15 minutes, then soluble extracellular polysaccharide was separated and purified from the supernatant and insoluble extracellular polysaccharide from the cell pellet, and then these were quantified.

The test system of a further assay is S. mutans JC-2. In words: Inhibitory effect on extracellular polysaccharide synthesis, standard strain. The following applies: 1 mM. The class given is cell-based, Streptococcus mutans. The procedure: as §1
A further assay relates to S. mutans BHT. The description is as above. The class given is cell-based, Streptococcus mutans. The following applies: 1 mM. The procedure:
as §1

For a further assay, the system named is S. mutans 10449. The description is as above. The class given is cell-based, Streptococcus mutans. The following applies: 1 mM. The procedure: as §1
Assay [2] has as its system cariogenic plaque bacteria (standard strains). In words: Inhibitory effect of acid production, standard strains. The following applies: ranking; FIG. 1. The assay is classed as cell-based, Streptococcus, Lactobacillus and Actinomyces. The procedure:
In order to identify the action by which medium-chain fatty acids inhibit acid production, the inhibitory effect and concentration of acid production were determined in seven kinds of standard cariogenic plaque bacteria. Also, the inhibitory effect of acid production for 20 kinds of cariogenic plaque bacteria, separated from the human oral cavity, was assayed. Liquid culture media used were: Todd-Hewitt broth of Streptococcus, Lactobacilli MRS broth of Lactobacillus and Brain Heart Infusion broth of Actinomyces. […] The final pH of the culture medium was measured after culturing for 24^~ 48 hours in 10% CO2 incubator.

For the next assay, the system named is Lactobacillus. In words: Inhibitory effect on extracellular polysaccharide synthesis, summary over Lactobacillus standard strains. Conditions: 1 mM, compared with control group, according to strains, read-out: synthesis of soluble extracellular polysaccharide inhibited/reduced by. The assay is classed as cell-based. The procedure:
as §1

The test system of assay [3] is cariogenic plaque bacteria (standard strains). In words: Inhibitory effect of bacterial growth, standard strains. Conditions: ranking; FIG. 3. The class given is cell-based, Streptococcus, Lactobacillus and Actinomyces. The procedure:
In order to evaluate how medium-chain fatty acids influence bacterial growth of cariogenic plaque bacteria, the influence on each bacteria was evaluated after selecting seven kinds of bacterial strains as standard bacteria among cariogenic plaque bacteria. […] The results that medium-chain fatty acids have on influencing bacterial growth of cariogenic plaque bacteria is shown in FIG. 3. And the result of measuring inhibitory effect of bacterial growth of 20 kinds of cariogenic plaque bacteria separated from the human oral cavities is shown in FIG. 4.

The test system of assay [4] is cariogenic plaque bacteria. In words: Inhibitory effect on extracellular polysaccharide synthesis (summary). The assay is classed as cell-based, Streptococcus, Lactobacillus and Actinomyces. Conditions: 1 mM; ranking. The procedure:
as §1, with “quantified. So the experimental results that represent inhibitory effect of medium-chain fatty acids upon extracellular polysaccharide synthesis, are shown in table 1, 2, 3 and 4.” for “quantified.”

Another assay deals with L. casei ATCC 4646. In words: Inhibitory effect on extracellular polysaccharide synthesis, standard strain. The assay is classed as cell-based, Lactobacillus casei. The procedure:
as §1

In a further assay the test system is L. casei ATCC 27216. The description is as above. The assay is classed as cell-based, Lactobacillus casei. The following applies: 1 mM, 2% glucose, 24-48 hours. The procedure: as §1
For the next assay, the system named is Streptococcus. In words: Inhibitory effect on extracellular polysaccharide synthesis, summary over Streptococcus standard strains. The assay is classed as cell-based. Conditions: 1 mM, compared with control group, range over strains, read-out: synthesis of soluble extracellular polysaccharide inhibited by. The procedure:
as §1

Another assay has as its system S. sanguis 10556. In words: Inhibitory effect on extracellular polysaccharide synthesis, standard strain. The following applies: 1 mM. The assay is classed as cell-based. The procedure: as §1
For a further assay, the system named is A. viscosus ATCC 15987. Described as above. Conditions: 1 mM, 2% glucose, 24-48 hours. The assay is classed as cell-based. The procedure:
as §1

Consider `CCCCCCCCC(=O)[O-].[Na+]` [C9, sodium nonanoate], for which the “Extracellular polysaccharide, soluble” value turned out to be 2.0 ± 0.7 µg/mL in assay [1] (Table 1, 1 mM); 4.6 ± 0.2 µg/mL in assay [1] (Table 2, 1 mM); 8.2 ± 0.4 µg/mL in assay [1] (Table 3, 1 mM); 6.2 ± 3.5 µg/mL with S. mutans JC-2 (2% glucose, 24-48 hours, control 34.4 ± 3.9); 50.8 ± 12.2 µg/mL in the assay on S. mutans 10449 (2% glucose, 24-48 hours, control 74.6 ± 1.8); 31.9 ± 4.0 µg/mL in the assay with L. casei ATCC 4646 (1 mM, 2% glucose, 24-48 hours, control 43.6 ± 7.0). The “Extracellular polysaccharide, soluble” value in the assay on L. casei ATCC 27216 (control 67.3 ± 4.5) is 70.1 ± 3.3 µg/mL; in the assay on S. sanguis 10556 (2% glucose, 24-48 hours, control 25.9 ± 4.3), 17.4 ± 8.9 µg/mL; in the assay with A. viscosus ATCC 15987 (control 222.8 ± 3.3), 241.6 ± 3.9 µg/mL. Besides, the “Extracellular polysaccharide, insoluble” value in the assay with S. mutans JC-2 (2% glucose, 24-48 hours, control 1.1 ± 0.2) is 0.9 ± 0.3 µg/mL; in the assay with S. mutans BHT (2% glucose, 24-48 hours, control 0.5 ± 0.1), 0.3 ± 0.1 µg/mL; with S. mutans 10449 (2% glucose, 24-48 hours, control 0.8 ± 0.3), 0.6 ± 0.2 µg/mL; with L. casei ATCC 4646 (1 mM, 2% glucose, 24-48 hours, control 5.3 ± 0.5), 3.8 ± 0.5 µg/mL; with L. casei ATCC 27216 (control 5.9 ± 0.4), 5.1 ± 0.5 µg/mL; with S. sanguis 10556 (2% glucose, 24-48 hours, control 0.6 ± 0.3), 0.5 ± 0.2 µg/mL. Also, the “Extracellular polysaccharide, insoluble” value with A. viscosus ATCC 15987 (control 2.1 ± 0.2) was determined as 1.4 ± 0.5 µg/mL. For the same compound, the inhibition at 1000 µM was 82% with S. mutans JC-2 (Streptococcus mutans, JC2, vs control, read-out: Inhibitory rate, soluble); 75% in the assay on S. mutans BHT (Streptococcus mutans, vs control, read-out: Inhibitory rate, soluble); 32% in the assay with S. mutans 10449 (Streptococcus mutans, 10449, vs control, read-out: Inhibitory rate, soluble); 27% in the assay with Lactobacillus; 27% in the assay with L. casei ATCC 4646 (Lacticaseibacillus casei, ATCC4646, read-out: Inhibitory rate, soluble); 32 to 82% with Streptococcus. The inhibition at 1000 µM with S. sanguis 10556 (vs control, read-out: Inhibitory rate, soluble) is 33%. In [2], the “inhibitory effect of acid production, sequence” value is “sodium laurate>sodium capriate>sodium nonanoate”. Also, the “inhibitory effect of bacterial growth, sequence” value in assay [3] is “sodium laurate>sodium capriate>sodium nonanoate”. Further, the “inhibitory effect of extracellular polysaccharide synthesis, sequence” value in assay [4] was “sodium laurate>sodium capriate>sodium nonanoate”.
`CCCCCCCCCC(=O)O` [C10, sodium capriate]: the “inhibitory effect of acid production, sequence” value in [2] is recorded as “sodium laurate>sodium capriate>sodium nonanoate”. For the same compound, the “inhibitory effect of bacterial growth, sequence” value in assay [3] is reported as “sodium laurate>sodium capriate>sodium nonanoate”. In addition, in assay [4], the “inhibitory effect of extracellular polysaccharide synthesis, sequence” value was “sodium laurate>sodium capriate>sodium nonanoate”.
